Experiment [1] concerns anti-Chlamydia abzymes. Type of experiment: biochemical, human. On the procedure:
(§1) For chemical inactivation, a diluent solution was divided into two portions. In one portion, an abzyme inhibitor was added.
(§2) The serum sample was split in two aliquots and one aliquot was diluted by solution containing the abzyme inhibitor, the second aliquot was diluted by the control solution. The aliquots were then tested in the same fashion.
Lipid peroxidation was assessed as a level of MDA concentration, which was measured by spectrophotometric methods [Draper, H. H. et al Free Radio. Biol. Med. (1993) 15, 353]. Briefly, the level of abzymes in a sample was determined as follows: Samples of sera were diluted 1:1 by 0.05M acetate buffer pH 4.0 to make the final pH of these samples between 5.6-5.8. 994 μl of the diluted serum was mixed with 10 μl of the commercial live ovine Chlamydia vaccine (Intervet). Samples were incubated overnight (12-16 hours) at 37° C. 250 μl of 40% trichloroacetic acid and 250 μl of 1 mM 2-thiobarbituric acid was added to each sample. All samples were placed in a water bath and boiled for 30 minutes. Samples were cooled down and centrifuged at 3,000 g for 10 minutes. The supernatants were collected and their absorption measured at λ525 nm to determine the concentration of malondialdehydes (MDA), which are products of lipid peroxidation.

In experiment [2] the test system is anti-Chlamydia abzymes. The class given is biochemical, human. On the procedure:
as §1, §2
ELISA assays were performed using Medac materials and reagents, which were used in accordance with the manufacturers instructions.
Briefly, serum samples from patients were treated as described above. 50 μl of sample diluent was pipetted into microtitre well Al as blank, and 50 μl of the negative control, Positive Control and the diluted patients' samples were pipetted into other microtitre wells. The microplate wells were incubated for 60 min (±5 min) at 37° C. (±1° C.) in a humid chamber and then washed three times with 200 μl wash buffer per well. 50 μl of Conjugate was then added to each well and the microplate wells incubated again for 60 min (±5 min) at 37° C. (±1° C.) in a humid chamber and then washed. 50 μl of TME-Substrate, was added to each well and the microplate wells incubated for 30 min (±2 min) at 37° C. (±1° C.) in a humid chamber. The reaction was stopped by adding 100 μl of Stop Solution, to each well.
Photometric reading was performed at 450 nm (ref. 620-650 nm) within 15 min after adding the Stop Solution.
To calculate the results, the OD value of the blank (well Al) was subtracted from all other OD values. […] Cut-off=mean OD value of the Negative Control+0.380. Grey zone=Cut-off±10%
If there was a difference between 10 and 15% (or an increase in one titer in MIF) of the signal between treated and non-treated samples the conclusion was that the activity of the abzymes was unclear, or in the “grey” zone.
The source holds these as a separate data set.

[3] abbreviates: serum diluted with inhibitor solution vs control solution.
The mark [4] stands for this setting: summary in text, tested by ELISA and the lipid oxidation assay.
Setting [5] is: serum with live ovine Chlamydia vaccine, pH 5.6-5.8, overnight 37° C.

Entries after “also recorded” stand apart in the source; their conditions may differ. Like-named read-outs stand apart in the source and are kept apart here.

With `CC1=C(/C=C/C(C)=C/C=C/C(C)=C/C=C/C=C(C)/C=C/C=C(C)/C=C/C2=C(C)CCCC2(C)C)C(C)(C)CCC1` [β-Carotene], in the experiment on anti-Chlamydia abzymes [1] (pH 5.6), the “Inhibition of abzymes ability to cause: Serum lipid peroxidation, in MDA assay” value (“Inhibition of abzymes ability … in MDA assay” for short) is reported as “Negative”. In the experiment on anti-Chlamydia abzymes [2], the “Inhibition of abzymes ability to cause: Damage of Chlamydia pneumoniae antigen, in ELISA” value (shortened to “Inhibition of abzymes ability … in ELISA”) is “Negative”.
As for `O=C(O)c1ccccc1` [Benzoic acid], the “Inhibition of abzymes ability … in MDA assay” value with anti-Chlamydia abzymes [1] (pH 5.6) is “Negative”. Further, the “Inhibition of abzymes ability … in ELISA” value with anti-Chlamydia abzymes [2] is recorded as “Negative”.
For `O=C(O)CN(CCOCCOCCN(CC(=O)O)CC(=O)O)CC(=O)O` [EGTA], the “Inhibition of abzymes ability … in ELISA” value in the experiment on anti-Chlamydia abzymes [2] (setting [3]) is reported as “Positive”. In the experiment on anti-Chlamydia abzymes [2] (setting [4]), the “Inhibition of abzyme activity (statement in text)” value (shortened to “Inhibition of abzyme activity”) is “inhibit abzyme activity”.
On to `OC[C@@H](O)[C@@H](O)[C@H](O)[C@H](O)CO` [D-Mannitol], for which, in the experiment on anti-Chlamydia abzymes [1] (setting [5]), the “Inhibition of abzymes ability … in MDA assay” value is given as “Negative”. The “Inhibition of abzymes ability … in ELISA” value in the experiment on anti-Chlamydia abzymes [2] (setting [3]) is “Negative”.
Regarding `O=C(O)CN(CCN(CC(=O)O)CC(=O)O)CC(=O)O` [EDTA], the “Inhibition of abzymes ability … in MDA assay” value in the experiment with anti-Chlamydia abzymes [1] (pH 5.6) is listed as “Positive”. Further, in the experiment on anti-Chlamydia abzymes [2], the “Inhibition of abzyme activity” value was “inhibit abzyme activity” and the “Inhibition of abzymes ability … in ELISA” value is given as “Positive”.
Consider `CC[C@H]1OC(=O)[C@H](C)[C@@H](O[C@H]2C[C@@](C)(OC)[C@@H](O)[C@H](C)O2)[C@H](C)[C@@H](O[C@@H]2O[C@H](C)C[C@H](N(C)C)[C@H]2O)[C@](C)(O)C[C@@H](C)CN(C)[C@H](C)[C@@H](O)[C@]1(C)O` [azithromycin], for which the “Inhibition of abzyme activity” value with anti-Chlamydia abzymes [2] (setting [4]) is recorded as “abzyme inhibitors”.
`CC(C)=CCC/C(C)=C/C=C/C(C)=C/C=C/C(C)=C/C=C/C=C(C)/C=C/C=C(C)/C=C/C=C(\C)CCC=C(C)C` [Lycopene]: the “Inhibition of abzymes ability … in MDA assay” value in the experiment with anti-Chlamydia abzymes [1] (setting [5]) was “Negative”. In addition, in the experiment on anti-Chlamydia abzymes [2] (setting [3]), the “Inhibition of abzymes ability … in ELISA” value is listed as “Negative”.
As to `CC(=O)Oc1ccccc1C(=O)O` [Acetyl salicylic acid], the “Inhibition of abzymes ability … in MDA assay” value with anti-Chlamydia abzymes [1] (setting [5]) is on record as “Positive”. For the same compound, the “Inhibition of abzymes ability … in ELISA” value in the experiment with anti-Chlamydia abzymes [2] (setting [3]) is on record as “Positive”. Moreover, in the experiment with anti-Chlamydia abzymes [2] (tested by ELISA and the lipid oxidation assay), the “Inhibition of abzyme activity” value is “inhibit abzyme activity; also recorded: abzyme inhibitors”.
For Haemoglobin, the “Inhibition of abzymes ability … in MDA assay” value in the experiment with anti-Chlamydia abzymes [1] (pH 5.6) is given as “Positive”. In addition, in the experiment on anti-Chlamydia abzymes [2], the “Inhibition of abzyme activity” value was “inhibit abzyme activity; also recorded: abzyme inhibitors” and the “Inhibition of abzymes ability … in ELISA” value is “Positive”.
Regarding (+) Catechin gallate, the “Inhibition of abzymes ability … in MDA assay” value in the experiment with anti-Chlamydia abzymes [1] (setting [5]) is “Positive”. The “Inhibition of abzymes ability … in ELISA” value in the experiment on anti-Chlamydia abzymes [2] (setting [3]) was “Positive”. The “Inhibition of abzyme activity” value in the experiment on anti-Chlamydia abzymes [2] (summary in text, tested by ELISA and the lipid oxidation assay, listed as (+) catechin gallate) is “abzyme inhibitors”; in the experiment with anti-Chlamydia abzymes [2] (summary in text, tested by ELISA and the lipid oxidation assay, listed as catechin gallate), “inhibit abzyme activity; also recorded: abzyme inhibitors”.
On to `Cc1c(O)cc2c(c1C)O[C@](C)(CCC[C@H](C)CCC[C@H](C)CCCC(C)C)CC2` [(+) y-Tocopherol], for which the “Inhibition of abzymes ability … in MDA assay” value in the experiment with anti-Chlamydia abzymes [1] (pH 5.6) was “Negative”. The “Inhibition of abzymes ability … in ELISA” value in the experiment on anti-Chlamydia abzymes [2] is listed as “Negative”.
Take `C[S+](C)[O-]` [DMSO]: the “Inhibition of abzymes ability … in MDA assay” value in the experiment with anti-Chlamydia abzymes [1] (setting [5]) is given as “Positive”. The “Inhibition of abzymes ability … in ELISA” value with anti-Chlamydia abzymes [2] (setting [3]) is on record as “Positive”. The “Inhibition of abzyme activity” value with anti-Chlamydia abzymes [2] (setting [4]) is on record as “inhibit abzyme activity; also recorded: abzyme inhibitors”; in the experiment on anti-Chlamydia abzymes [2] (tested by ELISA and the lipid oxidation assay, listed as DMS), “abzyme inhibitors”.
Turning to `Cc1c(C)c2c(c(C)c1O)CC[C@@](C)(CCC[C@H](C)CCC[C@H](C)CCCC(C)C)O2` [(+) α-Tocopherol], the “Inhibition of abzymes ability … in MDA assay” value in the experiment with anti-Chlamydia abzymes [1] (setting [5]) was “Negative”. The “Inhibition of abzymes ability … in ELISA” value in the experiment on anti-Chlamydia abzymes [2] (setting [3]) was “Negative”.
Regarding `CC[C@H]1OC(=O)[C@H](C)C(=O)[C@H](C)[C@@H](O[C@@H]2O[C@H](C)C[C@H](N(C)C)[C@H]2O)[C@](C)(OC)C[C@@H](C)C(=O)[C@H](C)[C@H]2N(CCCCn3cnc(-c4cccnc4)c3)C(=O)O[C@]12C` [Telithromycin, Ketek, Telithromycin], the “Inhibition of abzymes ability … in MDA assay” value in the experiment on anti-Chlamydia abzymes [1] (setting [5]) was “Positive”. Further, the “Inhibition of abzymes ability … in ELISA” value in the experiment on anti-Chlamydia abzymes [2] (setting [3]) is on record as “Positive”. Besides, the “Inhibition of abzyme activity” value with anti-Chlamydia abzymes [2] (summary in text, tested by ELISA and the lipid oxidation assay, listed as telithromycin) is “abzyme inhibitors”; in the experiment on anti-Chlamydia abzymes [2] (summary in text, tested by ELISA and the lipid oxidation assay, listed as telithromycin ketek), “inhibit abzyme activity”; in the experiment with anti-Chlamydia abzymes [2] (summary in text, tested by ELISA and the lipid oxidation assay, listed as telithromycin-ketek), “abzyme inhibitors”.
Regarding `O=C1O[C@H]([C@@H](O)CO)C(O)=C1O` [Ascorbic acid], in the experiment on anti-Chlamydia abzymes [1] (setting [5]), the “Inhibition of abzymes ability … in MDA assay” value was “Positive”. Moreover, the “Inhibition of abzymes ability … in ELISA” value in the experiment with anti-Chlamydia abzymes [2] (setting [3]) is reported as “Positive”. Also, the “Inhibition of abzyme activity” value in the experiment with anti-Chlamydia abzymes [2] (setting [4]) is on record as “inhibit abzyme activity”; with anti-Chlamydia abzymes [2] (summary in text, tested by ELISA and the lipid oxidation assay, listed as ascorbic acid), “abzyme inhibitors”.

The values above are taken from US20130095505A1, “DETECTION OF LIPID OXIDISING ABZYMES IN SAMPLES” (priority 2005, published 2013).
